Laboratory results published in publication PMC5054527, “Mechanism of high affinity inhibition of the human urate transporter URAT1” (Scientific Reports, 2016).
Substitutions are numbered along the chain they refer to. Like-named read-outs stand apart in the source and are kept apart here.

Key:
[1] = system: hURAT1; settings: cited from earlier work
[2] = target: T1, r-A21T rURAT1 point mutant (Rattus norvegicus, UniProt Q3ZAV1, A21T); assay: URAT1 uric acid transport activity assay; format: cell-based
T1 construct: expressed in transfected cells; host or cells: HEK-293T
T1 sequence (Q3ZAV1 1-553 A21T): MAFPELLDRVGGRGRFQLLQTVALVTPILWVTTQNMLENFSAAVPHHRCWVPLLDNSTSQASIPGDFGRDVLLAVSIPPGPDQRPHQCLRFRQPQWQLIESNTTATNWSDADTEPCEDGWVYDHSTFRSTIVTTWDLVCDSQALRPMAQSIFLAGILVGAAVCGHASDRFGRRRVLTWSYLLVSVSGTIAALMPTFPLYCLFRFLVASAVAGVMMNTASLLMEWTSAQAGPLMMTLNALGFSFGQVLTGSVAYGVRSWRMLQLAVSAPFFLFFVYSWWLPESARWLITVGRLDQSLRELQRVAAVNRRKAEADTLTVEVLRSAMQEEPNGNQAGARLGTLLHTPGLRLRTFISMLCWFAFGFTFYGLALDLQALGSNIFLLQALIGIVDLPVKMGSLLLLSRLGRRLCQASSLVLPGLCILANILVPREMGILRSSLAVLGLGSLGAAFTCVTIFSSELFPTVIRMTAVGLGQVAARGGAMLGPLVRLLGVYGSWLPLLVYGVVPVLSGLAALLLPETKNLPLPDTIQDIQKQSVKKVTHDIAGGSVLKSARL
Outline: (§1)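 Readout: 14C-uric acid uptake (100 μM, 10 min) in cells transiently transfected one day earlier with mutant rURAT1. Serially diluted inhibitors were added 5 min before substrate. Triplicate points, four-parameter logistic fit for IC50.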

[3] = target: T2, r-M481I rURAT1 point mutant (Rattus norvegicus, UniProt Q3ZAV1, M481I); assay: URAT1 uric acid transport activity assay; format: cell-based
T2 sequence (Q3ZAV1 1-553 M481I): T1 sequence (Q3ZAV1 1-553 A21T) with T21A, M481I
Outline: as §1

[4] = target: T3, r-M354T rURAT1 point mutant (Rattus norvegicus, UniProt Q3ZAV1, M354T); assay: URAT1 uric acid transport activity assay; format: cell-based
T3 construct: expressed in transfected cells; host or cells: HEK-293T
T3 sequence (Q3ZAV1 1-553 M354T): T1 sequence (Q3ZAV1 1-553 A21T) with T21A, M354T
Outline: as §1

Compound: CCc1oc2ccccc2c1C(=O)c1cc(Br)c(O)c(Br)c1 [benzbromarone]
- IC50 [2]: 22 ± 3.6 µM
- IC50 [3]: 15 ± 1.1 µM
- IC50 [4]: 18 ± 1.7 µM

Compound: O=C(O)CSc1nnc(Br)n1-c1ccc(C2CC2)c2ccccc12 [lesinurad, 2-((5-bromo-4-(4-cyclopropylnaphthalen-1-yl)-4H-1,2,4-triazol-3-yl)thio)acetic acid]
- IC50 ([2]; r-A21T, MES pH 5.5, 100 μM 14C-uric acid, read-out: IC50 (uric acid transport)): 71 ± 5.9 µM
- IC50 ([3]; r-M481I, MES pH 5.5, 100 μM 14C-uric acid, read-out: IC50 (uric acid transport)): 71 ± 3 µM
- IC50 ([4]; r-M354T, MES pH 5.5, 100 μM 14C-uric acid, read-out: IC50 (uric acid transport)): 56 ± 4.9 µM

Compound: O=C1C(CC[S+]([O-])c2ccccc2)C(=O)N(c2ccccc2)N1c1ccccc1 (stereo not drawn) [sulfinpyrazone]
- IC50 ([2]; r-A21T, HEPES pH 7.3, 100 μM 14C-uric acid, read-out: IC50 (uric acid transport)): 471 ± 81 µM
- fold increased affinity of r-M481I compared to rURAT1 ([3]; from IC50 values): 1.7 fold
- IC50 ([3]; r-M481I, HEPES pH 7.3, 100 μM 14C-uric acid, read-out: IC50 (uric acid transport)): 395 ± 68 µM
- IC50 ([4]; r-M354T, HEPES pH 7.3, 100 μM 14C-uric acid, read-out: IC50 (uric acid transport)): 304 ± 38 µM

Compound: O=c1[nH]c(=O)c2[nH]c(=O)[nH]c2[nH]1 [uric acid]
- Km ([1]; read-out: Km for the substrate urate): 371 µM
